Test results: patent publication US5075327A, “Antipsoriatic agents” (Hoffmann-La Roche Inc., priority 1988, dated 1991)
Like-named read-outs stand apart in the source and are kept apart here.

Legend:
[1] = system: cholesterol biosynthesis in HepG2 cells; assay: Inhibition of cholesterol biosynthesis in HepG2 cells (3H2O incorporation into cholesterol); format: cell-based; conditions: for IC50: Homo sapiens
Description: HepG2 cells are maintained in 175 cm^2 T flasks in Darlington Medium supplemented with 10% fetal bovine serum (FBS). Darlington Medium consists of 3 parts Minimal Essential Medium, 1 part Waymouth's MAB87/3 medium and 3×10^-8 M sodium selenite. This medium is supplemented with 100 U/ml penicillin, 100 ug/ml streptomycin and 2.5 ug/ml Fungizone. In order to establish optimal conditions for the whole cell cholesterol biosynthesis assay, preliminary experiments were performed. 0.25, 0.5, 0.75 or 1×10^6 cells were seeded into 6 well cluster plates in 2 ml of fully supplemented Darlington Medium. The serum supplemented medium was aspirated after 72 hours and replaced with serum free Darlington Medium with antibiotics. After 24, 48 or 72 hours serum free, the cells received either 0.5 or 1 mCi ^3 H2 O/ml medium. This medium was aspirated after 24 hours and the cells were washed twice with phosphate buffered saline. The cells were frozen overnight at -20° C. after which they were harvested from the wells with 1 ml of trypsin-EDTA. Extracted lipids were separated on an HPLC system; cholesterol peaks were collected and counted in a scintillation counter. Results are expressed as the dpm ^3 H2 O incorporated into cholesterol.
In the screening assay the cells received compounds at various concentrations concommitantly with ^3 H2 O. When ethanol was the vehicle, the final ethanol concentration was 0.5%, and control wells with that concentration of ethanol were used in each experiment. Results are expressed as the percent dpm ^3 H2 O incorporated into cholesterol in treated vs control wells. IC50 values are calculated using a linear regression analysis.

[2] = system: human keratinocyte cells; assay: Toxicity to keratinocytes in the proliferation assay; format: cell-based; conditions: 10^-6 M; keratinocyte cells in vitro
[3] = system: human keratinocytes; assay: Inhibition of proliferation of cultured human keratinocytes (cell count by Coulter Counter); format: cell-based; conditions: for inhibition at 1 µM / inhibition at 0.1 µM / inhibition at 0.01 µM: Homo sapiens, Keratinocyte; for inhibition at 1 µM: 10^-6 M; for inhibition at 0.1 µM: 10^-7 M; for inhibition at 0.01 µM: 10^-8 M; for Percent Inhibition on Keratinocyte Proliferation: ^ 10^-10 M
Description: Human neonatal foreskins were collected by circumcision and placed into tubes containing DMEM media. Upon arrival at the laboratory the foreskins were mechanically trimmed of excess dermis and treated with a solution of trypsin/EDTA (0.05%/0.02%) at 4° C. overnight. The epidermis was stripped from the dermis, agitated in buffered saline to remove basal keratinocytes and the stratum corneum buffer was removed. The separated cells were centrifuged, resuspended in media, counted and the cells were plated onto a plain plastic material layer.
The keratinocytes were plated at a density of approximately about 10^5 cells/cm^2 in 35 cm^2 dishes. The cells were grown in keratinocyte growth media (KGM-modified MCDB 153 containing […] by Clonetics of Boulder, Colo.) according to protocols originally developed by Boyce, S. T. and Ham, R. G., J. of Tissue Culture Meth. 9:83-93 (1985). The cells were grown for 5-10 days and changed every 2-3 days with keratinocyte growth media with 1.5 mM CaCl2 (hereinafter KGM/1.5 mM CaCl2) until cells reached a 75% confluency by visual observation. All the cultures were incubated in a humidified atmosphere of 5% CO2 at 37° C.
To establish keratinocyte cell cultures as antiproliferative assays, cells prepared as described in the foregoing were washed with PBS and removed from the culture surface with a solution of trypsin/EDTA (0.25%/0.03%). The removed cells were then centrifuged resuspended in the KGM/1.5 mM CaCl2 and counted. The cells were then distributed to 6 well plates at 100,000 cells per well as described in the foregoing. […] After 24-48 hours the cells were changed into KGM/1.5 mM CaCl2. Test compounds were added one to two days later and the cultures maintained for seven days. The media was changed every 2-3 days.
Solutions of the test compounds were prepared as follows: 1 milligram quantities were received in amber glass vials, and stored at -20° C. Sufficient 100% ethanol was added directly to vials to obtain a millimolar solution that was subsequently aliquoted into small amber vials, overlayed with argon gas and stored at -20° C. Each stock solution was thawed once, used and discarded. Aliquots from the stock solutions were diluted directly into medium and then serially diluted from micromolar to 10^-12 M concentrations. Dilutions from 10^-8 M to 10^-12 M had ethanol added for a final concentration of 0.1%. Stock solutions were used within one month. Control cultures were treated with 0.1% ethanol.
For each experiment every culture well received the same number of cells from the same culture source. At the termination of the experiment the number of cells per was determined by the following procedure. Wells were washed twice with PBS and then incubated for approximately 10-20 minutes at 37° C. with a trypsin/EDTA solution (0.25%/0.03%). PBS plus 0.1% […] was added and the cells were suspended. An aliquot of the cells was placed into isotonic buffered saline and counted on an electronic particle counter (e.g. Coulter Counter® device by Coulter Electronics of Hialeah, Fla.).
For statistical analysis, the mean was calculated for all wells in each treatment group. Standard error was determined by nonbiased analysis using a value for the number of wells in each group, preferably N=3.
Quantification of proliferation was done by enumerating the number of keratinocyte cells in each well using the Coulter Counter®. Results shown in Table 1 below show the percent reduction or inhibition of keratinocyte cells calculated for each of 4 concentrations of the compounds tested according to the formula: [formula]
Each compound was tested in triplicate. The control (ETOH), as noted above, was 0.1% ethanol.

[4] = system: cholesterol biosynthesis; conditions: U.S. Pat. No. 4,450,171, col. 1, lines 43-51; cited from earlier work
[5] = 168 h, 7 days, N = 3, read-out: Percent Inhibition on Keratinocyte Proliferation

With `CC[C@H](C)C(=O)O[C@H]1CCC=C2C=CC[C@H](CC[C@@H]3C[C@@H](O)CC(=O)O3)[C@]21C` [Compound A, [4R-(4α,6β),6[1S-[1α,8β(S), 8aα]]]-6-[2-[1,2,6,7,8,8a-hexahydro-8a-methyl-8-(2-methyl-1-oxo-butoxy)-1-naphthalenyl]-ethyl]tetrahydro-4-hydroxy-2H-pyran-2-one] the “cholesterol biosynthesis inhibition as compared to mevinolin” value ([1]; HepG2 cells, Tests I and II) was “exhibited cholesterol biosynthesis inhibition”, the IC50 ([1]; HepG2, Test I) was 0.047 µM and the IC50 ([1]; HepG2, Test II) was 3.81 µM. The “toxicity to the cells” value [2] was “without toxicity to the cells”, the inhibition at 1 µM [3, 5] was 17.1% and the inhibition at 0.1 µM [3, 5] was 10%. For the same molecule, the inhibition at 0.01 µM [3, 5] was 8.24%, the inhibition at 1 µM ([3]; read-out: inhibition rate of proliferation of keratinocyte cells) was ~20% and the “Percent Inhibition on Keratinocyte Proliferation” value ([3]; 7 days, N = 3) was 20.98%.

In the case of `CCC(C)C(=O)OC1CC(C)C=C2C=CC(C)C(CCC3CC(O)CC(=O)O3)C21` (centres unmarked) [mevinolin, reference compound], the IC50 ([1]; HepG2, Test I) is listed as 0.02 µM, the IC50 ([1]; HepG2, Test II) is listed as 0.64 µM and the “activity in inhibiting cholesterol biosynthesis among the natural mevinolin compounds” value [4] is listed as “most active member”.

Molecule `CC(=O)O[C@H]1CCCC2=CCC[C@H](CCC=O)[C@]21C` [Compound B, [1S-(1α,8β,8aβ)]-8-(2-formylethyl)-8a-methyl-1,2,3,4,6,7,8,8a-octahydro-1-naphthalenol-acetate] has an inhibition at 1 µM [3, 5] of 19.5%, an inhibition at 0.1 µM [3, 5] of 31.4% and an inhibition at 0.01 µM [3, 5] of 22.9%. The “Percent Inhibition on Keratinocyte Proliferation” value ([3]; 7 days, N = 3) was 4.52% and the “inhibition of cell proliferation relative to compound A” value ([3]; conclusion in words) was “slightly greater rate than compound A”.
